According to ChEMBL document CHEMBL1201862, “PubChem BioAssay data set” (2004):
Active and inactive are the calls of the source.

Experiments:
[1] = cytotoxicity in HEK-293T cells, dose response, cytotoxicity control for BCR NF-kB inhibitor project, luminescence, B-cell screen hits (AID 489021); type: functional, cell-based;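 also: HEK-293T cells carrying an NF-kB luciferase reporter; cells exposed to compound for about 14 hours before viability readout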
[2] = biological target: Alkaline phosphatase, placental type (Homo sapiens, UniProt P05187); assay: PLAP enzyme inhibitors, confirmation, biochemical, luminescence (AID 1512); type: functional
[3] = biological target: T1, Alkaline phosphatase, tissue-nonspecific isozyme (Homo sapiens, UniProt P05186); assay: human TNAP enzyme inhibitors, SAR follow-up, biochemical, luminescent, dose response (AID 1056)
T1 sequence (P05186 whole entry): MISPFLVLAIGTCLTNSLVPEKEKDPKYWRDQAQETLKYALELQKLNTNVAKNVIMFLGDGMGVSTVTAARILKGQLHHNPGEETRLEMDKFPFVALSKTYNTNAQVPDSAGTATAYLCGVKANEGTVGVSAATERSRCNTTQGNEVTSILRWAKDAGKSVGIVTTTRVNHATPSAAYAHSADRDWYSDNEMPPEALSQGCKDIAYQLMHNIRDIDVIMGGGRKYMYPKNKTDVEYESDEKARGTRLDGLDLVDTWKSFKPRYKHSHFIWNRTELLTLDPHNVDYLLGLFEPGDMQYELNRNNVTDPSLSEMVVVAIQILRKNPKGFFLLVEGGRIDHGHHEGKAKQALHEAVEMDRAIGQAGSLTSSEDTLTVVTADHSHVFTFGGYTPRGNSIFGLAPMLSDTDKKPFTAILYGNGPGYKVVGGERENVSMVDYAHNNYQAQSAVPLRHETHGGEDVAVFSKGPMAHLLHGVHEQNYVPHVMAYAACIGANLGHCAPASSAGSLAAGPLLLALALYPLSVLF

[4] = biological target: Glyceraldehyde-3-phosphate dehydrogenase (Homo sapiens, UniProt P04406)
[5] = biological target: Peroxisome proliferator-activated receptor gamma/Nuclear receptor coactivator 3 (Homo sapiens, UniProt P37231); type: functional;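 also: agonist potency for raising coactivator recruitment to the receptor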
[6] = biological target: Peroxisome proliferator-activated receptor gamma/Nuclear receptor coactivator 1 (Homo sapiens, UniProt P37231); type: functional;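 also: agonist potency as compounds enhance coactivator SRC-1 recruitment to PPARgamma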
[7] = biological target: Peroxisome proliferator-activated receptor gamma/Nuclear receptor coactivator 2 (Homo sapiens, UniProt P37231); type: functional;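 also: agonist potency for raising coactivator recruitment to the receptor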
HT-1080 = assay: cytotoxicity in HT1080 fibrosarcoma cells, cell-based, fluorescence readout (AID 620); type: functional; conditions: Homo sapiens
[8] = biological target: Luciferin 4-monooxygenase (Photinus pyralis, UniProt P08659); assay: Counter Screen for Luciferase-based Assay Positives. [Related pubchem assays: 620, 618, 411 ]
HEK293 = assay: inhibitors of LMP1-driven NF-kB reporter, dose response, cell-based, HEK293, luciferase, cherry-pick (AID 588343); type: functional; conditions: Homo sapiens
[9] = biological target: DNA dC->dU-editing enzyme APOBEC-3A (Homo sapiens, UniProt P31941); assay: APOBEC3A DNA deaminase inhibitors, dose response, biochemical (AID 504722); type: functional
[10] = biological target: DNA dC->dU-editing enzyme APOBEC-3G (Homo sapiens, UniProt Q9HC16); assay: Dose Response confirmation of small molecule APOBEC3G DNA Deaminase Inhibitors via a fluorescence-based single-stranded DNA deaminase assay. [Related pubchem assays (depositor defined):AID493012, AID493028]; type: functional
[11] = biological target: G-protein coupled receptor 55 (Homo sapiens, UniProt Q9Y2T6); assay: GPR55 antagonists blocking LPI-driven arrestin recruitment, primary screen, imaging, U2OS, beta-arrestin-GFP, LPI agonist (AID 2013); type: functional;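 also: antagonist potency measured as reduced agonist-driven arrestin aggregation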
[12] = growth suppression of PTEN-null colon cells, dose response, cell-based, HCT116 PTEN knockout (AID 1047); type: functional;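 also: HCT116 colon tumor cells with PTEN knocked out; cells exposed to compound for 60 hours before readout; potency for loss of cell viability measured by luminescence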
[13] = Luminescence Cell-Based Dose Retest to Confirm Inhibitors of Cancer Stem Cells. [Related pubchem assays (depositor defined):AID2717, AID2721]; type: functional; conditions: Homo sapiens
[14] = biological target: T2, Replicative DNA helicase DnaB (Mycobacterium tuberculosis, UniProt P9WMR3); assay: DnaB intein splicing inhibitors, dose response, biochemical, cell-free fluorescence (AID 449749); type: functional
T2 sequence (P9WMR3 whole entry): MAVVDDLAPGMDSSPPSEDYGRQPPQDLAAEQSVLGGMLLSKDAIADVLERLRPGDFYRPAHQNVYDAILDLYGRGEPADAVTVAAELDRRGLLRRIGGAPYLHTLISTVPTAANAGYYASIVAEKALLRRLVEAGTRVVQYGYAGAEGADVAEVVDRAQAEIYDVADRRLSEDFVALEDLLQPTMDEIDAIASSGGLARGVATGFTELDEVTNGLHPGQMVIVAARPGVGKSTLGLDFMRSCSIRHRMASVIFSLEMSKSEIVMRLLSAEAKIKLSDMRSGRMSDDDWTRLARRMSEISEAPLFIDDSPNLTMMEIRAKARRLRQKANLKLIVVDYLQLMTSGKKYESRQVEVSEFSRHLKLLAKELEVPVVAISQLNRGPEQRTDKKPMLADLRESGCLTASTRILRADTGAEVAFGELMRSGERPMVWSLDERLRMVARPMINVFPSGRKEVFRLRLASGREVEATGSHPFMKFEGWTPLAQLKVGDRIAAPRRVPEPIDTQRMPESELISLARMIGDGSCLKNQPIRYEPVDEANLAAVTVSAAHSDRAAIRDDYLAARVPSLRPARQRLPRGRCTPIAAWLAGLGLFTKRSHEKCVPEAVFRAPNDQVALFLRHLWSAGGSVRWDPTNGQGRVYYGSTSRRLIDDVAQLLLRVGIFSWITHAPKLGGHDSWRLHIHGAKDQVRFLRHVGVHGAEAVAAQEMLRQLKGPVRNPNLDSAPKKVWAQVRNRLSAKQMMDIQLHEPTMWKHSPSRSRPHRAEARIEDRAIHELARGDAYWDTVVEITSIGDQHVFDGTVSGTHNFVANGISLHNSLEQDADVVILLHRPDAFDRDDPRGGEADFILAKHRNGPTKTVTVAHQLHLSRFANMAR

cells = type: functional
[15] = growth suppression of beta-catenin-knockout colon cells, dose response, cell-based, HCT116, human colon tumor (AID 1045); type: functional;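 also: HCT116 colon tumor cells with beta catenin knocked out; cells exposed to compound for 60 hours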
Protein RecA = biological target: T3, Protein RecA (Mycobacterium tuberculosis, UniProt P9WHJ3); assay: Fluorescence Cell-Free Homogeneous Dose Retest to Identify Inhibitors of RecA-Intein Splicing Activity. [Related pubchem assays (depositor defined):AID2097, AID2223, AID489010, AID492950]; type: functional
T3 sequence (P9WHJ3 whole entry): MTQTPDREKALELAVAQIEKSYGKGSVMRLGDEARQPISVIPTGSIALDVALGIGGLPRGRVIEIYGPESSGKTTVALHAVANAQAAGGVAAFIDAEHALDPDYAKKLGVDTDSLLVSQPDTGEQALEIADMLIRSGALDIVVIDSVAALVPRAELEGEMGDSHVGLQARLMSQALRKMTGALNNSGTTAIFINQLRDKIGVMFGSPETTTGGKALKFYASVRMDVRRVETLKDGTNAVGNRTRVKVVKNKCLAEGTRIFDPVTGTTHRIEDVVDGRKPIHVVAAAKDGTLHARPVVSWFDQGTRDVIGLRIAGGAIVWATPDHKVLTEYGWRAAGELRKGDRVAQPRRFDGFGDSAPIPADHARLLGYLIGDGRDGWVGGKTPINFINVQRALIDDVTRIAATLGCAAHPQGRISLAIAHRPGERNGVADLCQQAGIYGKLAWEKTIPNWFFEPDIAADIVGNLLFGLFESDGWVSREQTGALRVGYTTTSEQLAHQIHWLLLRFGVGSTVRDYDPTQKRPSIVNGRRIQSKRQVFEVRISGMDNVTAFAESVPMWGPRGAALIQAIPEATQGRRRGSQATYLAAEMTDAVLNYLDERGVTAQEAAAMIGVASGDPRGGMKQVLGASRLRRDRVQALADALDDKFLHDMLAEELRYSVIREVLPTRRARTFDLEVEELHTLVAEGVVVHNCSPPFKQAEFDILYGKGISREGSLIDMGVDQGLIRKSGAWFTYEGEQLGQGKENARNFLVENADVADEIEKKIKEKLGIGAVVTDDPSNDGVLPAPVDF

[16] = ARNT/TACC3 interaction disruptors, potency, confirmation, biochemical, AlphaScreen, cherry-picked samples (AID 651703); type: functional, Homo sapiens;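 also: His-tagged ARNT PAS-B domain paired with GST-TACC3 E629A dimer coactivator fragment; potency of inhibitors that break up the complex and lower AlphaScreen signal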
ORF 73 = biological target: T4, ORF 73 (Human herpesvirus 8, UniProt O40947); assay: inhibitors of C-LANA binding to LBS DNA, dose response, biochemical, fluorescence polarization, cherry-picked samples (AID 504725); design: species or system Human gammaherpesvirus 8;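 also: fluorescence polarization of a labeled DNA duplex reporting LANA DNA binding; potency is for inhibitors that block LANA binding to the DNA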
T4 sequence (O40947 whole entry): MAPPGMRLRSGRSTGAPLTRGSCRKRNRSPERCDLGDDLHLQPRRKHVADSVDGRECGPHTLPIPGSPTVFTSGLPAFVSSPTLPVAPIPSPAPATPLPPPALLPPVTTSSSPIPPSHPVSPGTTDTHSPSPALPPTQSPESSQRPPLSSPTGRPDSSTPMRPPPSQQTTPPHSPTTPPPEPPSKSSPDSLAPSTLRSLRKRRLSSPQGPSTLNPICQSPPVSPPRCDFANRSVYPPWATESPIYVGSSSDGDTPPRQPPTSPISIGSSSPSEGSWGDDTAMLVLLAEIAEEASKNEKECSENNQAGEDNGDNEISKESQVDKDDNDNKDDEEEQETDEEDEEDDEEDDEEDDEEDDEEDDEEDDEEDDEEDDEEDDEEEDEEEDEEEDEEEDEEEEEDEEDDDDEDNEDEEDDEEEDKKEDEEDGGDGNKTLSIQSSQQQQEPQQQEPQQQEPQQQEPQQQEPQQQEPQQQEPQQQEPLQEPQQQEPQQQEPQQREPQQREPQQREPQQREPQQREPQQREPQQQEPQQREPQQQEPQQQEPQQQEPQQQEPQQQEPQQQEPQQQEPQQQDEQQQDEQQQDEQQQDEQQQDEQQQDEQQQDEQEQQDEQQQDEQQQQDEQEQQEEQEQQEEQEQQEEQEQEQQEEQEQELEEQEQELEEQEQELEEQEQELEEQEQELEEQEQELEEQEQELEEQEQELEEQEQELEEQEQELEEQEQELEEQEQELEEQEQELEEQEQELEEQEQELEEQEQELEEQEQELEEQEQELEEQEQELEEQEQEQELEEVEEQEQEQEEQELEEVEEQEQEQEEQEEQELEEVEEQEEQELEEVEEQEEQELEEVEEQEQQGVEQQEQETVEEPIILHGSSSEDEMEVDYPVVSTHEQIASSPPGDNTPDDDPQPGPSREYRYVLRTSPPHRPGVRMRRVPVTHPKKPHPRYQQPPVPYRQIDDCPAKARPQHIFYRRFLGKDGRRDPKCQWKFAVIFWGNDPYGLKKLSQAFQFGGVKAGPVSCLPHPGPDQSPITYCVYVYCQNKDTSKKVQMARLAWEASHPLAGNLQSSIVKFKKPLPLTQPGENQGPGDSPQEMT

DNA dC->dU-editing enzyme APOBEC-3G, sequence (Q9HC16 whole entry): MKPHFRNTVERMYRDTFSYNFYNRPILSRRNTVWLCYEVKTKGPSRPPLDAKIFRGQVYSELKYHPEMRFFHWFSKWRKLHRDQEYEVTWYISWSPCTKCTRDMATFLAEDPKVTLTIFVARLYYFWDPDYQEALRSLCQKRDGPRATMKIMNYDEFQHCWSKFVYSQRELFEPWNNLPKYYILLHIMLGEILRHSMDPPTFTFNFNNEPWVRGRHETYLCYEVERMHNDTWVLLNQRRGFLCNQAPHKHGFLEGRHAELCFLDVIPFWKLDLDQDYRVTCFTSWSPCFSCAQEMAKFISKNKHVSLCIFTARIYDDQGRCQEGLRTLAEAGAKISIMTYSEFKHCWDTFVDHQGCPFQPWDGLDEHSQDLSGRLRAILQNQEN
Peroxisome proliferator-activated receptor gamma/Nuclear receptor coactivator 2, sequence (P37231 whole entry): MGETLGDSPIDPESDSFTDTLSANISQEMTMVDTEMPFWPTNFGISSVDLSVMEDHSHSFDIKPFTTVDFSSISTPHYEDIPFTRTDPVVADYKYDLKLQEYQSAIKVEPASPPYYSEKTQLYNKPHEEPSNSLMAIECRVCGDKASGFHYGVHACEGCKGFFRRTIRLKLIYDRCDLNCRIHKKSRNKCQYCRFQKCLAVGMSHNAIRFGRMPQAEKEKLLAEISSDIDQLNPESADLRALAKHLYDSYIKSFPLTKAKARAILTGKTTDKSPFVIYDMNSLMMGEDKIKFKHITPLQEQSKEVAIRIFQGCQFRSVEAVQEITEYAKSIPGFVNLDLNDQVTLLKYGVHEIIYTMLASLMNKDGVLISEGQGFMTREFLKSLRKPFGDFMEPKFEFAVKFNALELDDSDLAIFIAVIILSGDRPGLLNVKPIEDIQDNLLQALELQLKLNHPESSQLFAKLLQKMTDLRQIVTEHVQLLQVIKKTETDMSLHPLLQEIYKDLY
Peroxisome proliferator-activated receptor gamma/Nuclear receptor coactivator 2, sequence (Q15596 whole entry, further chain): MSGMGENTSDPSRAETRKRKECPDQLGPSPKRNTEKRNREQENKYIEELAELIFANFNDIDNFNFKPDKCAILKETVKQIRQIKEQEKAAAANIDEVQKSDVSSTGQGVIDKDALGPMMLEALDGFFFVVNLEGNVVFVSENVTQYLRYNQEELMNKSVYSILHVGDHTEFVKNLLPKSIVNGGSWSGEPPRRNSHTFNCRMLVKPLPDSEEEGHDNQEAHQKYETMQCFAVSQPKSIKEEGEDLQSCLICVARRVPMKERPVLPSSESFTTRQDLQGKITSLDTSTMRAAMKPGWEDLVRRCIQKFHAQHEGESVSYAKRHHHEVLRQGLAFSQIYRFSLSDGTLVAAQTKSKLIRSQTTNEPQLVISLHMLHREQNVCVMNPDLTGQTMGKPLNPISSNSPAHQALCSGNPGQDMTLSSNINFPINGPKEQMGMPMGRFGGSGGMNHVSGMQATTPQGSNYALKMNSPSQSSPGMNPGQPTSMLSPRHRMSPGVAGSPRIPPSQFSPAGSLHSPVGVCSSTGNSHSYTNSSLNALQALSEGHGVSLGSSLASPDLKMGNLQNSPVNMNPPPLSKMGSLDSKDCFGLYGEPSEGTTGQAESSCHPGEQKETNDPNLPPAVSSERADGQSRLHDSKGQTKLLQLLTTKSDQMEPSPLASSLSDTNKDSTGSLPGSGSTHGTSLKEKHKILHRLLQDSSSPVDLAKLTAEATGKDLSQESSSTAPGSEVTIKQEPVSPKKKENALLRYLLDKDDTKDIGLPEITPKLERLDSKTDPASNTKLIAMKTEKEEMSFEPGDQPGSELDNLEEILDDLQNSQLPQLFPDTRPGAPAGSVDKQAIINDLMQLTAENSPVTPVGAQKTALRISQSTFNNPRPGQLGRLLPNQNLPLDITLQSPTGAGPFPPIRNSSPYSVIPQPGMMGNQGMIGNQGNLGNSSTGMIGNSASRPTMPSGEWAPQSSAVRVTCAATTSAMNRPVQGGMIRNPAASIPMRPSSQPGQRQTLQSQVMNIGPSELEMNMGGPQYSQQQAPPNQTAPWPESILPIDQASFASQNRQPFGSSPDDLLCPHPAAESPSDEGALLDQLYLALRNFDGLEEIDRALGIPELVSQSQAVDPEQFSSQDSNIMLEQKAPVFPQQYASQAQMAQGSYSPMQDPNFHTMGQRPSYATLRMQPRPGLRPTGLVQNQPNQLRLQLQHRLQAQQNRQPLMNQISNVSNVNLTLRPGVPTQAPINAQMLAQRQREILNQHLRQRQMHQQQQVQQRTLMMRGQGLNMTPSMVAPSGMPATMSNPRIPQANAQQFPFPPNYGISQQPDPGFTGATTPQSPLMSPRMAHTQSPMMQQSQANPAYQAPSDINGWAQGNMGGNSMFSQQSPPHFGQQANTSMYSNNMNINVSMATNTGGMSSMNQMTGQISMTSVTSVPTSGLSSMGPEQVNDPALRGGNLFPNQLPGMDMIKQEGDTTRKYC
Peroxisome proliferator-activated receptor gamma/Nuclear receptor coactivator 3, sequence (P37231 whole entry): as the sequence (P37231 whole entry) above
Peroxisome proliferator-activated receptor gamma/Nuclear receptor coactivator 3, sequence (Q9Y6Q9 whole entry, further chain): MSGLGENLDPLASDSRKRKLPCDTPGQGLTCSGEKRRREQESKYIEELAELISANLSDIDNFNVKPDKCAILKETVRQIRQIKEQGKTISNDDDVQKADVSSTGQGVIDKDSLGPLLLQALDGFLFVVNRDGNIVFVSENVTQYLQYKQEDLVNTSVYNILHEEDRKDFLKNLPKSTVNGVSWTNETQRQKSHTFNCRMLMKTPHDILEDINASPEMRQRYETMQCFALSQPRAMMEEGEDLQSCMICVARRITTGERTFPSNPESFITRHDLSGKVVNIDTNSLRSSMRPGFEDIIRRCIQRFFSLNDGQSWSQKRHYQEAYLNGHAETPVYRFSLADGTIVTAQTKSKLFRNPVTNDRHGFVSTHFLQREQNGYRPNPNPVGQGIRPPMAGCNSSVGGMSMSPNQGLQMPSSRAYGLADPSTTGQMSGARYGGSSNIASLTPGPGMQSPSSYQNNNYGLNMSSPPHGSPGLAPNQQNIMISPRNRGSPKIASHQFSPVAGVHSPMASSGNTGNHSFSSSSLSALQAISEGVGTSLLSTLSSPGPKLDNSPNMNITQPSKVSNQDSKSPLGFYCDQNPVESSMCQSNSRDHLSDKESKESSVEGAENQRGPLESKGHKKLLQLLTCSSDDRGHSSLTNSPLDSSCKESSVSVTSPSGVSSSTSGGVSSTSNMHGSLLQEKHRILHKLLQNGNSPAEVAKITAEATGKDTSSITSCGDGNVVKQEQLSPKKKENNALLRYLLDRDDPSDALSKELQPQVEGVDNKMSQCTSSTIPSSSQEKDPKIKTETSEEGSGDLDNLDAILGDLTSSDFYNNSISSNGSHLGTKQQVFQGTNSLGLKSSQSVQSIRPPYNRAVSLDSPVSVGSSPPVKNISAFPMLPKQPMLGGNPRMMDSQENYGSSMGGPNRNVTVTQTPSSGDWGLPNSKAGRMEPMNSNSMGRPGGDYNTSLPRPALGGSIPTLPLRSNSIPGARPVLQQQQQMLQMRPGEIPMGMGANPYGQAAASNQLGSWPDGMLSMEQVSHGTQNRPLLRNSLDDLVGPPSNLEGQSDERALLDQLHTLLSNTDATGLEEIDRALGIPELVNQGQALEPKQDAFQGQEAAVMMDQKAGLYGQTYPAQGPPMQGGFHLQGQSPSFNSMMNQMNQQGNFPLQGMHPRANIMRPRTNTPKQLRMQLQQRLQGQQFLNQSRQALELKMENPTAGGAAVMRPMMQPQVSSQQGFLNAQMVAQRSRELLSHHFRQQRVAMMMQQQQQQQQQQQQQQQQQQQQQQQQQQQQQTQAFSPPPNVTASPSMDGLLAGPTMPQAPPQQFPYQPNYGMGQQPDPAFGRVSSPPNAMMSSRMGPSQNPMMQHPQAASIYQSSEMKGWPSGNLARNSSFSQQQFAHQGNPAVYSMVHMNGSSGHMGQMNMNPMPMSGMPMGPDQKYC
DNA dC->dU-editing enzyme APOBEC-3A, sequence (P31941 whole entry): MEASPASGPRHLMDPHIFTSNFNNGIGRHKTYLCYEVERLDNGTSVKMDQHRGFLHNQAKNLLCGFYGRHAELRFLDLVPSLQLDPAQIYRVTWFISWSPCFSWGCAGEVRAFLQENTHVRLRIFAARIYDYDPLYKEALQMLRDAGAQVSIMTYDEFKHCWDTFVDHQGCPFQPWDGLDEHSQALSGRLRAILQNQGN
Alkaline phosphatase, placental type, sequence (P05187 whole entry): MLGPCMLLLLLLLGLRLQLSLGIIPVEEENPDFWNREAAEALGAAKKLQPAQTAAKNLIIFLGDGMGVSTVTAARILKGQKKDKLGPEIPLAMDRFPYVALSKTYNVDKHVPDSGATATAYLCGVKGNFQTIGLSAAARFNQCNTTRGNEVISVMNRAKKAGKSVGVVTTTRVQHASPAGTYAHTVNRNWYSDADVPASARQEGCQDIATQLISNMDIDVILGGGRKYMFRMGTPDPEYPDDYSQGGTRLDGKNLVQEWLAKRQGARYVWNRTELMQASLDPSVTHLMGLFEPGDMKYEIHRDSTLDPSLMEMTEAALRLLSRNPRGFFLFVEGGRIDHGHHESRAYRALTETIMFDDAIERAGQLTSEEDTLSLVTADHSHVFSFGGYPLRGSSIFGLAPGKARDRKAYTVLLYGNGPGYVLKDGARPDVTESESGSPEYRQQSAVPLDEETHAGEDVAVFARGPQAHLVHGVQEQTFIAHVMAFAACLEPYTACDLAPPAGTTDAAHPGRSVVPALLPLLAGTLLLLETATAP

With COc1ccc(/C=N\NC(=O)c2sccc2C)cc1Cn1nc(C)cc1C the IC50 [1] was > 80 µM (inactive).
With Cc1ccc(-c2nc(N)nn2-c2ccccc2)cc1 the IC50 [2] was > 100 µM (inactive), the IC50 [3] was > 100 µM (inactive) and the IC50 [4] was > 100 µM (not active).
In the case of CC(=O)NC1=NC(=O)/C(=C/c2cc(C)n(-c3ccc(NC(C)=O)cc3)c2C)S1, the EC50 [5] is reported as > 79.4 µM (not active), the EC50 [6] is reported as > 79.4 µM (not active) and the EC50 [7] is reported as > 79.4 µM (not active).
For O=C(CN1C(=O)c2ccccc2S1(=O)=O)c1ccccc1, the EC50 (HT-1080) was > 50 µM (not active), the EC50 [8] was > 100 µM (not active) and the AC50 (HEK293) was 1.36 µM (active).
With O=C(CSc1nnc(-c2ccncc2)[nH]1)c1ccc(O)c(O)c1 the IC50 [2] was 6.95 µM (active) and the IC50 [3] was 6.53 µM (active).
With Cc1[nH]c2nc(S)nc-2cc1Br the IC50 [9] was > 100 µM (inactive) and the IC50 [10] was 1.98 µM (active).
With CCOC(=O)c1cc(C)nc(S)c1C#N the IC50 [9] was > 100 µM (inactive) and the IC50 [10] was 4.65 µM (active).
In the case of Cc1noc(C)c1CN(C(=S)NC1CC2CCC1C2)c1ccccc1 (stereo not given), the IC50 [11] is reported as 3.74 µM (active).
In the case of CC1(C)Oc2ccc([N+](=O)[O-])cc2O1, the IC50 [2] is reported as > 100 µM (inactive) and the IC50 [3] is reported as > 100 µM (inactive).
For O=C(Nc1ccc(NC(=O)c2ccco2)nc1)c1ccccn1, the EC50 (HT-1080) was > 50 µM (not active) and the EC50 [8] was 9.44 µM (active).
In the case of O=C(C1CCC1)N1CCN(S(=O)(=O)c2ccc([N+](=O)[O-])cc2)CC1, the IC50 [1] is reported as > 80 µM (inactive).
In the case of Cc1n[nH]c2c1C(c1ccc(-c3ccc(Cl)cc3)o1)C(C#N)=C(N)O2 (stereo not given), the EC50 [12] is reported as 10.6 µM (active), the EC50 [5] is reported as > 79.4 µM (not active) and the EC50 [6] is reported as > 79.4 µM (not active). The AC50 [13] was 6.86 µM (active), the AC50 [14] was 41.8 µM (active) and the IC50 (cells) was 39.7 µM (active). For the same compound, the EC50 [7] was > 79.4 µM (not active), the EC50 [15] was 9.79 µM (active) and the EC50 (Protein RecA) was 28.6 µM (active).
For Cc1c(CCOC(=O)c2ccc(N3CCOCC3)c([N+](=O)[O-])c2)sc[n+]1CC#N, the IC50 [11] was 5.68 µM (active).
For C/C(=N/NC(=O)c1ccncc1)c1cc2ccc(O)cc2oc1=O, the AC50 [16] was 116 µM (active) and the AC50 (ORF 73) was 0.544 µM (active).
With CC(C)Cn1c(-c2ccccc2F)n[nH]c1=S the IC50 [9] was > 100 µM (inactive) and the IC50 [10] was 5.39 µM (active).
In the case of CCCCCC/C=C/c1ccc(OC)c([C@H]2[C@H]3C=CC[C@@H](C)[C@@H]3C(=O)N2Cc2ccccc2)c1, the IC50 [1] is reported as > 80 µM (inactive).
In the case of CS(=O)(=O)N(CC(=O)NCc1ccncc1)Cc1ccc(Cl)cc1, the EC50 [5] is reported as > 79.4 µM (not active), the EC50 [6] is reported as > 79.4 µM (not active) and the EC50 [7] is reported as > 79.4 µM (not active).
